Structures can show the parent of a compound that is named as a salt.
target: T1, RIPK1 (Homo sapiens, UniProt Q13546); experiment: RIPK1-ADP-Glo enzymatic assay; type: biochemical; details: ADP-Glo luminescent ADP detection; 25 nM GST-RIPK1 kinase domain (residues 1-327), 300 μM ATP, dephosphorylated-MBP substrate; 30 min pre-incubation, 150 min reaction
T1 construct: recombinant GST-RIPK1 kinase domain (residues 1-327) enzyme produced from baculovirus-transfected Sf21 cells; host or cells: baculovirus-transfected Sf21 insect cells
T1 sequence (Q13546 1-327): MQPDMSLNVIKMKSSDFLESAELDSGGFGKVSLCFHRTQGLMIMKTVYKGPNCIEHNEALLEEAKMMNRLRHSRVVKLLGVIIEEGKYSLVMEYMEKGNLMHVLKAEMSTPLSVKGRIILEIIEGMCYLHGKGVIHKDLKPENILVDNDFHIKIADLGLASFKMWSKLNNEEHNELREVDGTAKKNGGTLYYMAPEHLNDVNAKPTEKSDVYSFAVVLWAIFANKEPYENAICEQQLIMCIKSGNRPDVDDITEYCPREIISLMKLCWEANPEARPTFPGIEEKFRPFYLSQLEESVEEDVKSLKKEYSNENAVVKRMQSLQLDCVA
Procedure: RIPK1-ADP-Glo Enzymatic Assay
The enzymatic activity of RIPK1 is measured using an assay derived from ADP-Glo kit (Promega™), which provides a luminescent-based ADP detection system. Specifically, the ADP generated by RIPK1 kinase is proportionally detected as luminescent signals in a homogenous fashion. In this context, the assessment of the inhibitory effect of small molecules (EC50) is measured by the effectiveness of the compounds to inhibit the ATP to ADP conversion by RIPK1.
In this assay, the potency (EC50) of each compound was determined from a ten-point (1:3 serial dilution; top compound concentration of 100000 nM) titration curve using the following outlined procedure. To each well of a white ProxiPlus 384 well-plate, 30 nL of compound (1% DMSO in final assay volume of 3 μL) was dispensed, followed by the addition of 2 μL of 1×assay buffer (25 mM Hepes 7.3, 20 mM MgCl2, 50 mM NaCl, 1 mM DTT, 0.005% Tween20, and 0.02% BSA) containing 37.5 nM of GST-RIPK1 (recombinant GST-RIPK1 kinase domain (residues 1-327) enzyme produced from baculovirus-transfected Sf21 cells: MW=62 kDa). Plates were placed in an ambient temperature humidified chamber for a 30 minutes pre-incubation with compound. Subsequently, each reaction was initiated by the addition of 1 μL 1×assay buffer containing 900 μM ATP and […] dephosphorylated-MBP substrate. The final reaction in each well of 3 μL consists of 25 nM of GST-RIPK1, 300 μM ATP, and 3 μM dephosphorylated-MBP. Kinase reactions were allowed to proceed for 150 minutes prior to adding ADP-Glo reagents per Promega's outlined kit protocol. Dose-response curves were generated by plotting percent effect (% product conversion; Y-axis) vs. Log10 compound concentrations (X-axis). EC50 values were calculated using a non-linear regression, four-parameters sigmoidal dose-response model.

SMILES	EC50
CC1(Oc2ccccc2)CN(C(=O)N2N=CCC2c2cc(F)cc(F)c2)C1 (racemic) [Example 1.2, (R and S)-(5-(3,5-difluorophenyl)-4,5-dihydro-1H-pyrazol-1-yl)(3-methyl-3-phenoxyazetidin-1-yl)methanone, TFA salt]	9.7 nM
N#Cc1cc(OC2CN(C(=O)N3N=CCC3c3cc(F)cc(F)c3)C2)ncn1 (racemic) [Example 1.5, (R and S)-6-((1-(5-(3,5-difluorophenyl)-4,5-dihydro-1H-pyrazole-1-carbonyl)azetidin-3-yl)oxy)pyrimidine-4-carbonitrile, TFA salt]	140 nM
C[C@@H]1[C@H](Oc2ccccc2)CN1C(=O)N1N=CC[C@H]1c1cc(F)cc(F)c1 (racemic) [Example 1.11, ((S)-5-(3,5-difluorophenyl)-4,5-dihydro-1H-pyrazol-1-yl)((2R,3R and 2S,3S)-2-methyl-3-phenoxyazetidin-1-yl)methanone, TFA salt]	11.8 nM
O=C(N1CCC1c1ccccc1F)N1N=CC[C@H]1c1cc(F)cc(F)c1 (mixture of isomers) [Example 1.21, ((S)-5-(3,5-difluorophenyl)-4,5-dihydro-1H-pyrazol-1-yl)((R and S)-2-(2-fluorophenyl)azetidin-1-yl)methanone]	27.6 nM
O=C(N1CCC1Cc1ccccc1)N1N=CC[C@H]1c1cc(F)cc(F)c1 (mixture of isomers) [Example 1.22, ((S)-2-benzylazetidin-1-yl)((R and S)-5-(3,5-difluorophenyl)-4,5-dihydro-1H-pyrazol-1-yl)methanone]	73.6 nM
COC(=O)C1CC12CN(C(=O)N1N=CC[C@H]1c1cc(F)cc(F)c1)C2 (mixture of isomers) [Example 1.47, methyl (R and S)-5-((S)-5-(3,5-difluorophenyl)-4,5-dihydro-1H-pyrazole-1-carbonyl)-5-azaspiro[2.3]hexane-1-carboxylate]	195 nM
N#Cc1cc(OC2CN(C(=O)N3N=CC[C@H]3c3cc(F)cc(F)c3)C2)ncn1 (single isomer, unassigned) [Example 1.6]	83 nM
C[C@H]1[C@H](Oc2ccccc2)CN1C(=O)N1N=CC[C@H]1c1cc(F)cc(F)c1 (single isomer, unassigned) [Example 1.9, ((S)-5-(3,5-difluorophenyl)-4,5-dihydro-1H-pyrazol-1-yl)((2S,3R or 2R,3S)-2-methyl-3-phenoxyazetidin-1-yl)methanone, TFA salt]	104 nM
C[C@@H]1[C@@H](Oc2ccccc2)CN1C(=O)N1N=CC[C@H]1c1cc(F)cc(F)c1 (single isomer, unassigned) [Example 1.10, ((S)-5-(3,5-difluorophenyl)-4,5-dihydro-1H-pyrazol-1-yl)((2R,3S or 2S,3R)-2-methyl-3-phenoxyazetidin-1-yl)methanone, TFA salt]	10.5 nM
C[C@@H]1[C@H](Oc2ccccc2)CN1C(=O)N1N=CC[C@H]1c1cc(F)cc(F)c1 (single isomer, unassigned) [Example 1.12, ((S)-5-(3,5-difluorophenyl)-4,5-dihydro-1H-pyrazol-1-yl)((2R,3R or 2S,3S)-2-methyl-3-phenoxyazetidin-1-yl)methanone, TFA salt]	8.8 nM
C[C@H]1[C@@H](Oc2ccccc2)CN1C(=O)N1N=CC[C@H]1c1cc(F)cc(F)c1 (single isomer, unassigned) [Example 1.13, ((S)-5-(3,5-difluorophenyl)-4,5-dihydro-1H-pyrazol-1-yl)((2S,3S or 2R,3R)-2-methyl-3-phenoxyazetidin-1-yl)methanone, TFA salt]	7.6 nM
O=C(N1CC(Oc2ccccc2)C1)N1N=CC[C@@H]1c1ccccc1 (single isomer, unassigned) [Example 2.4]	5000 nM
O=C(N1CC(Oc2ccccc2)C1)N1N=CC[C@H]1c1ccccc1 (single isomer, unassigned) [Example 2.5]	0.5 nM
CC1(Oc2ccc(F)cc2)CN(C(=O)N2N=CC[C@H]2c2cncc(F)c2)C1 (single isomer, unassigned) [Example 2.31]	17.1 nM
Cc1ncc([C@@H]2CC=NN2C(=O)N2CC(Oc3ccc(F)cc3)C2)cc1F (single isomer, unassigned) [Example 2.40]	14.7 nM
CC(c1ccccc1)C1CN(C(=O)N2N=CC[C@H]2c2cc(F)cc(F)c2)C1 (single isomer, unassigned) [Example 2.42, ((S)-5-(3,5-difluorophenyl)-4,5-dihydro-1H-pyrazol-1-yl)(3-((R or S)-1-phenylethyl)azetidin-1-yl)methanone]	18.6 nM
CC(c1ccccc1)C1CN(C(=O)N2N=CC[C@H]2c2cc(F)cc(F)c2)C1 (single isomer, unassigned) [Example 2.43, ((S)-5-(3,5-difluorophenyl)-4,5-dihydro-1H-pyrazol-1-yl)(3-((S or R)-1-phenylethyl)azetidin-1-yl)methanone]	46.7 nM
CC1(Oc2ccccc2)CN(C(=O)N2N=CC[C@H]2c2cc(F)cc(F)c2)C1 [Example 1.1, (S)-(5-(3,5-difluorophenyl)-4,5-dihydro-1H-pyrazol-1-yl)(3-methyl-3-phenoxyazetidin-1-yl)methanone, TFA salt]	2.5 nM
O=C(N1CC(Oc2ccccc2)C1)N1N=CC[C@@H]1c1cc(F)cc(F)c1 [Example 1.4, (R)-(5-(3,5-difluorophenyl)-4,5-dihydro-1H-pyrazol-1-yl)(3-phenoxyazetidin-1-yl)methanone, TFA salt]	600 nM
O=C(N1CC(Oc2cccnc2)C1)N1N=CC[C@H]1c1cc(F)cc(F)c1 [Example 1.7, (S)-(5-(3,5-difluorophenyl)-4,5-dihydro-1H-pyrazol-1-yl)(3-(pyridin-3-yloxy)azetidin-1-yl)methanone, TFA salt]	12.8 nM
O=C(N1CC(Oc2ccncc2)C1)N1N=CC[C@H]1c1cc(F)cc(F)c1 [Example 1.8, (S)-(5-(3,5-difluorophenyl)-4,5-dihydro-1H-pyrazol-1-yl)(3-(pyridin-4-yloxy)azetidin-1-yl)methanone, TFA salt]	8.7 nM
O=C(N1CC(Cc2ccccc2)C1)N1N=CC[C@H]1c1cc(F)cc(F)c1 [Example 1.14, (S)-(3-benzylazetidin-1-yl)(5-(3,5-difluorophenyl)-4,5-dihydro-1H-pyrazol-1-yl)methanone, TFA salt]	6.1 nM
O=C(N1CC(O)C1)N1N=CC[C@H]1c1cc(F)cc(F)c1 [Example 1.15, (S)-(5-(3,5-difluorophenyl)-4,5-dihydro-1H-pyrazol-1-yl)(3-hydroxyazetidin-1-yl)methanone]	3680 nM
O=C(N1CC(OC2CCCC2)C1)N1N=CC[C@H]1c1cc(F)cc(F)c1 [Example 1.17, (S)-(3-(cyclopentyloxy)azetidin-1-yl)(5-(3,5-difluorophenyl)-4,5-dihydro-1H-pyrazol-1-yl)methanone, TFA salt]	11.5 nM
O=C(N1CC(c2ncccn2)C1)N1N=CC[C@H]1c1cc(F)cc(F)c1 [Example 1.18, (S)-(5-(3,5-difluorophenyl)-4,5-dihydro-1H-pyrazol-1-yl)(3-(pyrimidin-2-yl)azetidin-1-yl)methanone]	325 nM
O=C(N1CC2(C1)CN(c1ccccn1)C2)N1N=CC[C@H]1c1cc(F)cc(F)c1 [Example 1.19, (S)-(5-(3,5-difluorophenyl)-4,5-dihydro-1H-pyrazol-1-yl)(6-(pyridin-2-yl)-2,6-diazaspiro[3.3]heptan-2-yl)methanone, TFA salt]	3450 nM
CS(=O)(=O)N1CCC2(CC1)CN(C(=O)N1N=CC[C@H]1c1cc(F)cc(F)c1)C2 [Example 1.20, (S)-(5-(3,5-difluorophenyl)-4,5-dihydro-1H-pyrazol-1-yl)(7-(methylsulfonyl)-2,7-diazaspiro[3.5]nonan-2-yl)methanone]	1320 nM
CC(C)OC1CN(C(=O)N2N=CC[C@H]2c2cc(F)cc(F)c2)C1 [Example 1.24, (S)-(5-(3,5-difluorophenyl)-4,5-dihydro-1H-pyrazol-1-yl)(3-isopropoxyazetidin-1-yl)methanone]	29.9 nM
O=C(N1CC(OCc2ccccc2)C1)N1N=CC[C@H]1c1cc(F)cc(F)c1 [Example 1.25, (S)-(3-(benzyloxy)azetidin-1-yl)(5-(3,5-difluorophenyl)-4,5-dihydro-1H-pyrazol-1-yl)methanone]	11.8 nM

Reference: patent US20230265094A1, “RIPK1 INHIBITORS AND METHODS OF USE” (Merck Sharp & Dohme LLC, priority 2020, published 2023)
